In doi:10.1101/2022.02.04.479214v1 (biorxiv, 2022):
pIC50: −log10 of the molar value.

Columns and labels:
Test in all cases: CYP activity inhibition in microsomes
Format in all cases: biochemical
Settings in all cases: microsomes with NADPH; direct inhibition
CYP2D6 = CYP2D6 (Homo sapiens, UniProt P10635)
CYP2C19 = CYP2C19 (Homo sapiens, UniProt P33261)
CYP3A4 = CYP3A4 (Homo sapiens, UniProt P08684)
CYP2C9 = CYP2C9 (Homo sapiens, UniProt P11712)
CYP1A2 = biological target: T1, CYP1A2 (Homo sapiens, UniProt P05177)
T1 sequence (P05177 2-516): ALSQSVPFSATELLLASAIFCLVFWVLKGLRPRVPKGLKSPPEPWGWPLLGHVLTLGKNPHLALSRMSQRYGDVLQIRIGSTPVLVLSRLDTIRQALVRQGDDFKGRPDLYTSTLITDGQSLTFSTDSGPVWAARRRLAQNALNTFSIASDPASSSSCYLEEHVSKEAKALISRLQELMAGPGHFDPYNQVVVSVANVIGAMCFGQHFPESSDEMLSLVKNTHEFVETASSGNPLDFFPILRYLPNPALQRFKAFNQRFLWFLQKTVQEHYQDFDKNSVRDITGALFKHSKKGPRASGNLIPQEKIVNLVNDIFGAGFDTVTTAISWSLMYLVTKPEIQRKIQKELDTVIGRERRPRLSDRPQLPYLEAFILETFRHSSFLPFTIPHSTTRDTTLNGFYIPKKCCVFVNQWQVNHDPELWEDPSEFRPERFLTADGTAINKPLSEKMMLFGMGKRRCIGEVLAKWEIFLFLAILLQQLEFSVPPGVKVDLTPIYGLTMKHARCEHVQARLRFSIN

Measured: pIC50

Chain of CYP2D6 (P10635 whole entry): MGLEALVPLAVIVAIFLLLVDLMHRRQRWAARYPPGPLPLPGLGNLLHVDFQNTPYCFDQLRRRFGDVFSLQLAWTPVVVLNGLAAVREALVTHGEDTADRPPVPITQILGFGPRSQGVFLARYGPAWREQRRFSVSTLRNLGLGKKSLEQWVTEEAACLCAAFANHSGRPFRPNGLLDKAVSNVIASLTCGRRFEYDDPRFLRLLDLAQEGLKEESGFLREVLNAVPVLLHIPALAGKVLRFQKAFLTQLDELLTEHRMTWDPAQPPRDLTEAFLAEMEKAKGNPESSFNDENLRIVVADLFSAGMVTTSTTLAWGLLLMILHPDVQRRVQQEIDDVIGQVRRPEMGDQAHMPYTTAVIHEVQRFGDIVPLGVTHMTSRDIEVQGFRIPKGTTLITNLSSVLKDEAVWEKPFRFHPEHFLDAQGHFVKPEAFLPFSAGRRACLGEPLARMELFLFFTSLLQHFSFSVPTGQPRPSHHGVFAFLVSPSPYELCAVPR
Chain of CYP2C19 (P33261 whole entry): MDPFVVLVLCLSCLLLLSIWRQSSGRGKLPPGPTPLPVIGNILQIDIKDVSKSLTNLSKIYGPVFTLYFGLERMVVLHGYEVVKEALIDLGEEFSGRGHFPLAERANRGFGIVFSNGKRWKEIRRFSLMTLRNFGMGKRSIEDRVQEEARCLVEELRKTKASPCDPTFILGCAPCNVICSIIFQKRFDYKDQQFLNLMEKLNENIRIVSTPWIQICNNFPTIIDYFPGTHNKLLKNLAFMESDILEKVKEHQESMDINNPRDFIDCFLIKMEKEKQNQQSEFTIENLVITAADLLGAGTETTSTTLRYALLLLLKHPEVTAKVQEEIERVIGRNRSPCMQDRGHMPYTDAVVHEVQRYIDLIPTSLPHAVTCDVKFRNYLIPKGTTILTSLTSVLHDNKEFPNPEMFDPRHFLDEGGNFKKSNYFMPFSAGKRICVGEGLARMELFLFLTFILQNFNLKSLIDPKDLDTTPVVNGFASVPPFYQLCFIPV
Chain of CYP3A4 (P08684 2-503): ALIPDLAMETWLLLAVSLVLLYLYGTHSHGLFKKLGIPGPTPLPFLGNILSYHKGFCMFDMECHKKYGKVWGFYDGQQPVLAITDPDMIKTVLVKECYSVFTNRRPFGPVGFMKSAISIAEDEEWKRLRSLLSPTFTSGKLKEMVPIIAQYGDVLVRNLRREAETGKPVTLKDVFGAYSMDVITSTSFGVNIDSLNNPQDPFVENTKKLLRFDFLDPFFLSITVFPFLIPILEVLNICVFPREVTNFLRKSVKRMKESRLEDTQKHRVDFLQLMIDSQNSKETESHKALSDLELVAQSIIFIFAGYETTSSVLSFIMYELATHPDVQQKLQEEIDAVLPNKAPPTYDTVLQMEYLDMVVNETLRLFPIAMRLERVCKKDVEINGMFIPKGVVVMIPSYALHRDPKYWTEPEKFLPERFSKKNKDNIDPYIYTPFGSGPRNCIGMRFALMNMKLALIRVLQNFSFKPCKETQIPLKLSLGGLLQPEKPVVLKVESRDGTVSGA
Chain of CYP2C9 (P11712 whole entry): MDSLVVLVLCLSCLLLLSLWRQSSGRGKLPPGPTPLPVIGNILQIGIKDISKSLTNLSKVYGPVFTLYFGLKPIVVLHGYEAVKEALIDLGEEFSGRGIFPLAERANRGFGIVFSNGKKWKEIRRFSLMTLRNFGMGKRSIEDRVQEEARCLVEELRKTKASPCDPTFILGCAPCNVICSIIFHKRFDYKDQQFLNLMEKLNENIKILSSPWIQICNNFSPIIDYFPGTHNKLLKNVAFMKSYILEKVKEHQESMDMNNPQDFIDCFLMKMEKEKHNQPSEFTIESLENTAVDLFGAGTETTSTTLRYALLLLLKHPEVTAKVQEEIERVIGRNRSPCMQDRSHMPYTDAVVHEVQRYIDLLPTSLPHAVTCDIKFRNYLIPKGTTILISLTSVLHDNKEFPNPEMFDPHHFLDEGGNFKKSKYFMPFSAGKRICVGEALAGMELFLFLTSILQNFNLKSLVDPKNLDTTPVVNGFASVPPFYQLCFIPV

Cc1cccc(OC2CCN(Cc3cc(=O)[nH]c(=O)[nH]3)CC2)c1C [GSK2556286]
< 4.60: all assays above
